Test results as given in ChEMBL document CHEMBL6087472, “Development and Discovery of a Selective Degrader of Casein Kinases 1 δ/ε” (J Med Chem, 2025).
Calls of active or inactive are those of the source. No cut-off for these calls is given here.

Assays:
Type in all cases: cell-based
[1] = target: von Hippel-Lindau disease tumor suppressor/Casein kinase I isoform epsilon (Homo sapiens) (UniProt P49674+P40337); assay: PROTAC activity at VHL/CK1 epsilon in human MDA-MB-231 cells assessed as induction of degradation of CK1 epsilon at 1 uM measured after 6 hrs
[2] = target: T1, von Hippel-Lindau disease tumor suppressor/Casein kinase I isoform delta (Homo sapiens, UniProt P48730+P40337); assay: PROTAC activity at VHL/HiBit fused CK1 delta in human MV4-11 cells assessed as fold change at 10 uM measured after 6 hrs in presence of MLN4924 by Nano-Glo HiBit assay
[3] = target: T1, von Hippel-Lindau disease tumor suppressor/Casein kinase I isoform delta; assay: PROTAC activity at VHL/HiBit fused CK1 delta in human MV4-11 cells assessed as fold change at 10 uM measured after 6 hrs in presence of 1 uM of MU1742 by Nano-Glo HiBit assay
[4] = target: T1, von Hippel-Lindau disease tumor suppressor/Casein kinase I isoform delta; assay: PROTAC activity at VHL/HiBit fused CK1 delta in human MV4-11 cells assessed as fold change at 0.63 uM measured after 6 hrs in presence of 1 uM of MU1742 by Nano-Glo HiBit assay

T1 sequence (P40337 whole entry, looked up, the tested form may be a part, canonical isoform): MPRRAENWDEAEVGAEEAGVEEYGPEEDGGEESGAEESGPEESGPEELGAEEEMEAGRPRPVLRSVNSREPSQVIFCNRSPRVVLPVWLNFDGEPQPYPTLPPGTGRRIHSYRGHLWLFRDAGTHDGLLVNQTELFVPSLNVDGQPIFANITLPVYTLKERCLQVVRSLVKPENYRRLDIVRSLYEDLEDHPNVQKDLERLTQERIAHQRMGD
T1 sequence (P48730 whole entry, looked up, the tested form may be a part, canonical isoform): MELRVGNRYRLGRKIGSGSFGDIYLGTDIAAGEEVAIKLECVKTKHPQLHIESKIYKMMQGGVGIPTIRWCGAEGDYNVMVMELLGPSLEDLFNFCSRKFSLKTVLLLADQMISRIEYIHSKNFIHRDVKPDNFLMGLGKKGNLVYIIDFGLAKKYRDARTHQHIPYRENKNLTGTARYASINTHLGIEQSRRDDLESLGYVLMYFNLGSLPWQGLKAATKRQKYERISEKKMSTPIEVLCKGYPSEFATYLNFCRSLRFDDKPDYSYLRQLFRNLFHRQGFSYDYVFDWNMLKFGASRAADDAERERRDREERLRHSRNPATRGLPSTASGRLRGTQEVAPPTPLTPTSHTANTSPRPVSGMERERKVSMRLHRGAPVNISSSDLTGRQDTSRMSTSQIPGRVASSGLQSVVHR
Sequence of von Hippel-Lindau disease tumor suppressor/Casein kinase I isoform epsilon (Homo sapiens) (P40337 whole entry, looked up, the tested form may be a part, canonical isoform): as the sequence (P40337 whole entry, looked up, the tested form may be a part, canonical isoform) above
Sequence of von Hippel-Lindau disease tumor suppressor/Casein kinase I isoform epsilon (Homo sapiens) (P49674 whole entry, looked up, the tested form may be a part, canonical isoform): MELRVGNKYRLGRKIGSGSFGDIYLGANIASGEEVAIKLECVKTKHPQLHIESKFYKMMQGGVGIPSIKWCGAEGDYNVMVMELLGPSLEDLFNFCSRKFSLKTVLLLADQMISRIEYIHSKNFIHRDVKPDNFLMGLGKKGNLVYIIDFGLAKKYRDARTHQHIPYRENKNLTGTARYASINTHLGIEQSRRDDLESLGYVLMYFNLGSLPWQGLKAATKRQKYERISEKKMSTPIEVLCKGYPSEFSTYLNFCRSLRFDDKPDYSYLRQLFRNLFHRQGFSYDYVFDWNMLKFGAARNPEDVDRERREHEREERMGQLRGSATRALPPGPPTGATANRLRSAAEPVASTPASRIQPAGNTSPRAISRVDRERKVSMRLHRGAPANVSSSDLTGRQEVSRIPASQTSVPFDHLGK

Activity [1]: Active
fold change (FC) [2]: 0.93
fold change (FC) [3]: 0.67
fold change (FC) [4]: 1.19
Structure (SMILES): Cc1ncsc1-c1ccc(CNC(=O)[C@H]2C[C@H](O)CN2C(=O)[C@H](NC(=O)CCCCCCC(=O)N2CCC(F)(Cn3cnc(-c4ccc(F)cn4)c3-c3ccnc4[nH]ccc34)CC2)C(C)(C)C)cc1
